For 17 compounds, DC50 results are on record in patent US20250302815A1, “PROTEIN TYROSINE PHOSPHATASE TARGETING LIGANDS” (CALICO LIFE SCIENCES LLC, priority 2021, published 2025).

For assay [1], the target named is T1, PTPN2 (HiBIT-PTPN2 in 293T.109 cells) (Homo sapiens, UniProt P17706).
T1 construct: expressed in transfected cells; host or cells: 293T.109 (293T WT from ATCC)
T1 sequence (P17706 1-415): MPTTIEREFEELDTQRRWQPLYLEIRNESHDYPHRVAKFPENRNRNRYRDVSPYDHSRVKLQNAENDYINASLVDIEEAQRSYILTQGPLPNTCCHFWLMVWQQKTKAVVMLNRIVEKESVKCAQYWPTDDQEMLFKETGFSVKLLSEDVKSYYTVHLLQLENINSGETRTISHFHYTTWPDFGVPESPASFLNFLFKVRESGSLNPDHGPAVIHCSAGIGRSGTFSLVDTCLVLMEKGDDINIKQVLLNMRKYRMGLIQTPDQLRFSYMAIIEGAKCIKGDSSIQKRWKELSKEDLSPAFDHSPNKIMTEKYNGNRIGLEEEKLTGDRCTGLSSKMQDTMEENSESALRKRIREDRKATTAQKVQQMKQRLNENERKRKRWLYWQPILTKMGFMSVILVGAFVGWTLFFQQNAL
Kind of assay: HiBiT Degradation 293T.109 PTPN2 (Nano-Glo HiBiT Lytic Assay). The format is cell-based. To be noted: 24.0 hours. In short, it runs like this:
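293T.109 cells with ectopic N-terminal HiBiT-tagged PTPN2 (5000/well) exposed to compounds for 24 h at 37 °C, 5% CO2; 11-point half-log titration from 10 μM top, duplicates. Remaining HiBiT-PTPN2 read as luminescence with Nano-Glo HiBiT lytic reagent, normalised to untreated cells (0%) and reagent-free wells.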

The target in a further assay is T2, PTPN2 (B16F10.4 cells) (Mus musculus, UniProt Q06180).
T2 construct: HiBiT; host or cells: B16F10.4
T2 sequence (Q06180 1-406): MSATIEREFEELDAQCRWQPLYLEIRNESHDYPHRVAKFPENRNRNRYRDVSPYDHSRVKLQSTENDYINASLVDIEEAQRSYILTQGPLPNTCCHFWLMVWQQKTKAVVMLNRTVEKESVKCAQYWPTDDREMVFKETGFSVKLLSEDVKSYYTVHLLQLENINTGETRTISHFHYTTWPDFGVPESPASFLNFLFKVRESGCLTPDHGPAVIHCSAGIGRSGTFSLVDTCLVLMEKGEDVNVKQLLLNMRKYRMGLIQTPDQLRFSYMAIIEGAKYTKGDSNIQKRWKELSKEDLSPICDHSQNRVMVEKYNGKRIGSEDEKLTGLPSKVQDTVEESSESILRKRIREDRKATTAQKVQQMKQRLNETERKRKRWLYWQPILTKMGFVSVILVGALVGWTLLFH
Nature of the assay: HiBiT Degradation B16F10.4 PTPN2. In kind it is cell-based. To be noted: 24.0 hours.

A word on the DC50: it is the concentration giving 50% degradation.

Bounds are passed on as bounds.

For `O=C(O)COc1c(C(=O)O)sc(-c2cccc(NC3CCN(S(=O)(=O)Cc4cccc(NC(=O)N5CCC(Oc6cccc7c6CN(C6CCC(=O)NC6=O)C7=O)CC5)c4)CC3)c2)c1Cl` (stereo not shown) [Example 65], the 50% degradation concentration (DC50) (in assay [1]; at PTPN2 (B16F10.4 cells)) was 200 to 1000 nM throughout.

As for `O=C(O)COc1c(C(=O)O)sc(-c2cccc(NC3CCN(S(=O)(=O)Cc4cccc(NC(=O)CCc5ccc6c(c5)CN(C5CCC(=O)NC5=O)C6=O)c4)CC3)c2)c1Cl` (stereo not shown) [Example 47], the half-maximal degradation concentration (DC50) (in assay [1]; at PTPN2 (B16F10.4 cells)) was 200 to 1000 nM in each case.

`O=C(O)COc1c(C(=O)O)sc(-c2cccc(NC3CCN(S(=O)(=O)C(c4ccccc4)c4cccc(NC(=O)CNc5ccc6c(c5)C(=O)N(C5CCC(=O)NC5=O)C6=O)c4)CC3)c2)c1Cl` (stereo not shown) [Example 42, 3-(carboxymethoxy)-4-chloro-5-(3-((1-(((3-(2-((2-(2,6-dioxopiperidin-3-yl)-1,3-dioxoisoindolin-5-yl)amino)acetamido)phenyl)(phenyl)methyl)sulfonyl)piperidin-4-yl)amino)phenyl)thiophene-2-carboxylic acid]: the DC50 was 200 to 1000 nM in assay [1] and at least 1000 nM at PTPN2 (B16F10.4 cells).

Turning to `CC1(C)C[C@H](Nc2cccc(-c3sc(C(=O)O)c(OCC(=O)O)c3Cl)c2)CCN1S(=O)(=O)Cc1cccc(NC(=O)N2CCC(c3ccc4c5c(cccc35)C(=O)N4C3CCC(=O)NC3=O)CC2)c1F` (stereo partly drawn) [Example 129, 3-(carboxymethoxy)-4-chloro-5-(3-(((4R)-1-((3-(4-(1-(2,6-dioxopiperidin-3-yl)-2-oxo-1,2-dihydrobenzo[cd]indol-6-yl)piperidine-1-carboxamido)-2-fluorobenzyl)sulfonyl)-2,2-dimethylpiperidin-4-yl)amino)phenyl)thiophene-2-carboxylic acid], the half-maximal degradation concentration (DC50) in assay [1] was 200 to 1000 nM; on PTPN2 (B16F10.4 cells) it was under 50 nM.

`CC1(C)C[C@@H](Nc2cccc(-c3sc(C(=O)O)c(OCC(=O)O)c3Cl)c2F)CCN1S(=O)(=O)Cc1ccc(F)c(NC(=O)C2CN(C(=O)CNc3cccc4c3CN([C@@H]3CCC(=O)NC3=O)C4=O)C2)c1` (single isomer, unassigned) [Example 148a]: the results for the DC50 (in assay [1]; on PTPN2 (B16F10.4 cells)) were under 50 nM and 200 to 1000 nM, respectively.

As for `CC1(C)C[C@@H](Nc2cccc(-c3sc(C(=O)O)c(OCC(=O)O)c3Cl)c2F)CCN1S(=O)(=O)Cc1ccc(F)c(NC(=O)C2CN(C(=O)CNc3cccc4c3CN([C@H]3CCC(=O)NC3=O)C4=O)C2)c1` (single isomer, unassigned) [Example 148b], the figures for the DC50 (in assay [1]; at PTPN2 (B16F10.4 cells)) were under 50 nM and 200 to 1000 nM, respectively.

Take `CC(Nc1cccc2c1CN(C1CCC(=O)NC1=O)C2=O)C(=O)NCCCCCCC(=O)Nc1cccc(CS(=O)(=O)N2CCC(Nc3cccc(-c4sc(C(=O)O)c(OCC(=O)O)c4Cl)c3)CC2)c1` (stereo not shown) [Example 26, 3-(carboxymethoxy)-4-chloro-5-[3-[[1-[[3-[7-[2-[[2-(2,6-dioxo-3-piperidyl)-1-oxo-isoindolin-4-yl]amino]propanoylamino]heptanoylamino]phenyl]methylsulfonyl]-4-piperidyl]amino]phenyl]thiophene-2-carboxylic acid]: the DC50 in assay [1] is 200 to 1000 nM; at PTPN2 (B16F10.4 cells), at least 1000 nM.

Take `Cn1c(=O)n(C2CCC(=O)NC2=O)c2ccc(C3CN(CC(=O)Nc4cccc(CS(=O)(=O)N5CC[C@H](Nc6cccc(-c7sc(C(=O)O)c(OCC(=O)O)c7Cl)c6)CC5(C)C)c4)C3)cc21` (stereo partly shown) [Example 184]: the DC50 is under 50 nM in assay [1] and 50 to 200 nM at PTPN2 (B16F10.4 cells).

As for `CC1(C)C[C@@H](Nc2cccc(-c3sc(C(=O)O)c(OCC(=O)O)c3Cl)c2)CCN1S(=O)(=O)Cc1cccc(NC(=O)NCCC2CCN(c3ccc4c5c(cccc35)C(=O)N4C3CCC(=O)NC3=O)CC2)c1` (stereo partly drawn) [Example 219, 3-(carboxymethoxy)-4-chloro-5-(3-(((4S)-1-((3-(3-(2-(1-(1-(2,6-dioxopiperidin-3-yl)-2-oxo-1,2-dihydrobenzo[cd]indol-6-yl)piperidin-4-yl)ethyl)ureido)benzyl)sulfonyl)-2,2-dimethylpiperidin-4-yl)amino)phenyl)thiophene-2-carboxylic acid], the 50% degradation concentration (DC50) in assay [1] is 50 to 200 nM; at PTPN2 (B16F10.4 cells), under 50 nM.

For the compound `CC1(C)C[C@@H](Nc2cccc(-c3sc(C(=O)O)c(OCC(=O)O)c3Cl)c2)CCN1S(=O)(=O)Cc1cccc(NC(=O)N2CCC(c3ccc4c(c3)C3(CC3)C(=O)N4C3CCC(=O)NC3=O)CC2)c1` (stereo partly shown) [Example 150], the DC50 (in assay [1]; on PTPN2 (B16F10.4 cells)) was 50 to 200 nM in each case.

With `CC1(C)C[C@@H](Nc2cccc(-c3sc(C(=O)O)c(OCC(=O)O)c3Cl)c2)CCN1S(=O)(=O)Cc1cccc(NC(=O)C2CCN(C(=O)CNc3cccc4c3CN(C3CCC(=O)NC3=O)C4=O)CC2)c1` (stereo partly drawn) [Example 48, 3-(carboxymethoxy)-4-chloro-5-(3-(((4S)-1-((3-(1-((2-(2,6-dioxopiperidin-3-yl)-1-oxoisoindolin-4-yl)glycyl)piperidine-4-carboxamido)benzyl)sulfonyl)-2,2-dimethylpiperidin-4-yl)amino)phenyl)thiophene-2-carboxylic acid], the results for the DC50 (in assay [1]; at PTPN2 (B16F10.4 cells)) were under 50 nM and 200 to 1000 nM, respectively.

As to `Cn1c(=O)n(C2CCC(=O)NC2=O)c2cccc(OC3CCN(C(=O)Nc4cccc(CS(=O)(=O)N5CC[C@H](Nc6cccc(-c7sc(C(=O)O)c(OCC(=O)O)c7Cl)c6)CC5(C)C)c4)CC3)c21` (stereo partly shown) [Example 151], the DC50 (in assay [1]; on PTPN2 (B16F10.4 cells)) was 200 to 1000 nM throughout.

Consider `CC1(C)C[C@@H](Nc2cccc(-c3sc(C(=O)O)c(OCC(=O)O)c3Cl)c2)CCN1S(=O)(=O)Cc1cccc(NC(=O)N2CCN(C(=O)CNc3cccc4c3CN(C3CCC(=O)NC3=O)C4=O)CC2)c1` (stereo partly drawn) [Example 62, 3-(carboxymethoxy)-4-chloro-5-(3-(((4S)-1-((3-(4-((2-(2,6-dioxopiperidin-3-yl)-1-oxoisoindolin-4-yl)glycyl)piperazine-1-carboxamido)benzyl)sulfonyl)-2,2-dimethylpiperidin-4-yl)amino)phenyl)thiophene-2-carboxylic acid], for which the DC50 in assay [1] was 50 to 200 nM; at PTPN2 (B16F10.4 cells), 200 to 1000 nM.

With `O=C(O)COc1c(C(=O)O)sc(-c2cccc(NC3CCN(S(=O)(=O)Cc4cccc(NC(=O)CNc5ccc6c(c5)C(=O)N(C5CCC(=O)NC5=O)C6=O)c4)CC3)c2)c1Cl` (stereo not shown) [Example 23, 3-(carboxymethoxy)-4-chloro-5-[3-[[1-[[3-[[2-[[2-(2,6-dioxo-3-piperidyl)-1,3-dioxo-isoindolin-5-yl]amino]acetyl]amino]phenyl]methylsulfonyl]-4-piperidyl]amino]phenyl]thiophene-2-carboxylic acid], the half-maximal degradation concentration (DC50) (in assay [1]; on PTPN2 (B16F10.4 cells)) was 200 to 1000 nM in each case.

Regarding `Cn1c(=O)n(C2CCC(=O)NC2=O)c2ccc(C3CN(C(=O)Nc4cccc(CS(=O)(=O)N5CC[C@H](Nc6cccc(-c7sc(C(=O)O)c(OCC(=O)O)c7Cl)c6)CC5(C)C)c4)C3)cc21` (stereo partly drawn) [Example 106, 3-(carboxymethoxy)-4-chloro-5-[3-[[(4S)-1-[[3-[[3-[1-(2,6-dioxo-3-piperidyl)-3-methyl-2-oxo-benzimidazol-5-yl]azetidine-1-carbonyl]amino]phenyl]methylsulfonyl]-2,2-dimethyl-4-piperidyl]amino]phenyl]thiophene-2-carboxylic acid], the half-maximal degradation concentration (DC50) (in assay [1]; on PTPN2 (B16F10.4 cells)) was 50 to 200 nM each time.

As for `Cn1c(=O)n(C2CCC(=O)NC2=O)c2ccc(C3CCN(C(=O)Nc4cccc(CS(=O)(=O)N5CC[C@@H](Nc6cccc(-c7sc(C(=O)O)c(OCC(=O)O)c7Cl)c6)CC56CC6)c4)CC3)cc21` (stereo partly drawn) [Example 230, 3-(carboxymethoxy)-4-chloro-5-(3-(((7R)-4-((3-(4-(1-(2,6-dioxopiperidin-3-yl)-3-methyl-2-oxo-2,3-dihydro-1H-benzo[d]imidazol-5-yl)piperidine-1-carboxamido)benzyl)sulfonyl)-4-azaspiro[2.5]octan-7-yl)amino)phenyl)thiophene-2-carboxylic acid], the half-maximal degradation concentration (DC50) in assay [1] lay in the range of 200 to 1000 nM; at PTPN2 (B16F10.4 cells) it was 50 to 200 nM.

Take `O=C(O)COc1c(C(=O)O)sc(-c2cccc(N[C@H]3CCN(S(=O)(=O)Cc4cccc(NC(=O)N5CCC(c6ccc7c8c(cccc68)C(=O)N7C6CCC(=O)NC6=O)CC5)c4)C4(CC4)C3)c2)c1Cl` (stereo partly drawn) [Example 229, 3-(carboxymethoxy)-4-chloro-5-(3-(((7S)-4-((3-(4-(1-(2,6-dioxopiperidin-3-yl)-2-oxo-1,2-dihydrobenzo[cd]indol-6-yl)piperidine-1-carboxamido)benzyl)sulfonyl)-4-azaspiro[2.5]octan-7-yl)amino)phenyl)thiophene-2-carboxylic acid]: the DC50 in assay [1] was 50 to 200 nM; at PTPN2 (B16F10.4 cells), under 50 nM.
